Tests used:
Assay in all cases: relative viability (nuclei count vs DMSO), 5 days (fraction); higher = more cells survive
Trametinib + Lapatinib = compound: CC(=O)Nc1cccc(-n2c(=O)n(C3CC3)c(=O)c3c(Nc4ccc(I)cc4F)n(C)c(=O)c(C)c32)c1 [Trametinib] + CS(=O)(=O)CCNCc1ccc(-c2ccc3ncnc(Nc4ccc(OCc5cccc(F)c5)c(Cl)c4)c3c2)o1 [Lapatinib] (partner 2 µM)
Summary of the method: (§1)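 Values are medians from duplicate plates. Each reflects relative viability, defined as the nuclei count of treated wells over that of vehicle wells. Lung cancer cell lines in 1536-well plates were pin-tool dosed one day after seeding with one drug alone or with a fixed anchor-drug dose plus five library-drug doses (not always all listed) in √10 steps, then fixed, stained and imaged at 4× after 5 days.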

Trametinib + Tozasertib = compound: CC(=O)Nc1cccc(-n2c(=O)n(C3CC3)c(=O)c3c(Nc4ccc(I)cc4F)n(C)c(=O)c(C)c32)c1 [Trametinib] + Cc1cc(Nc2cc(N3CCN(C)CC3)nc(Sc3ccc(NC(=O)C4CC4)cc3)n2)n[nH]1 [Tozasertib] (partner 0.1 µM)
Summary of the method: as §1

[1] = compound: CN1C=C(C2=CC=CC=C21)/C=C\3/C4=C(C=CC=N4)NC3=O + CC(C)C[C@H](NC(=O)[C@H](Cc1ccccc1)NC(=O)c1cnccn1)B(O)O [Bortezomib] (partner 0.002 µM)
Summary of the method: as §1

[2] = compound: CN1C=C(C2=CC=CC=C21)/C=C\3/C4=C(C=CC=N4)NC3=O + C[C@]1(O)C[C@@H](c2nc(-c3ccc4ccc(-c5ccccc5)nc4c3)c3c(N)nccn32)C1 [Linsitinib] (partner 1 µM)
Summary of the method: as §1

Row | Cell Line | relative viability (Trametinib + Lapatinib; first compound 0.0025 µM) | relative viability (Trametinib + Lapatinib; first compound 0.007906 µM) | relative viability (Trametinib + Lapatinib; first compound 0.025 µM) | relative viability (Trametinib + Lapatinib; first compound 0.07906 µM) | relative viability (Trametinib + Lapatinib; first compound 0.25 µM) | relative viability (Trametinib + Tozasertib; first compound 0.0025 µM) | relative viability (Trametinib + Tozasertib; first compound 0.007906 µM) | relative viability (Trametinib + Tozasertib; first compound 0.025 µM) | relative viability (Trametinib + Tozasertib; first compound 0.07906 µM) | relative viability (Trametinib + Tozasertib; first compound 0.25 µM) | relative viability ([1]; first compound 0.02 µM) | relative viability ([1]; first compound 0.06325 µM) | relative viability ([1]; first compound 0.2 µM) | relative viability ([1]; first compound 0.6325 µM) | relative viability ([1]; first compound 2 µM) | relative viability ([2]; first compound 0.02 µM) | relative viability ([2]; first compound 0.06325 µM) | relative viability ([2]; first compound 0.2 µM) | relative viability ([2]; first compound 0.6325 µM) | relative viability ([2]; first compound 2 µM)
1 | NCI-H520 | 0.855 | 0.912 | 0.756 | 0.68 | 0.428 | 0.388 | 0.46 | 0.473 | 0.469 | 0.362 | 0.6 | 0.432 | 0.653 | 0.578 | 0.667 | 0.87 | 0.808 | 0.963 | 0.96 | 1.02
2 | NCI-H596 | 0.918 | 0.817 | 0.807 | 0.833 | 0.412 | 0.867 | 0.733 | 0.602 | 0.784 | 0.464 | 0.838 | 1.17 | 1.03 | 1.07 | 1.02 | 0.976 | 1.08 | 0.934 | 0.935 | 1.05
3 | NCI-H647 | 1.03 | 0.936 | 0.759 | 0.683 | 0.231 | 0.188 | 0.216 | 0.261 | 0.216 | 0.136 | 1.28 | 0.793 | 0.712 | 0.709 | 0.958 | 0.933 | 0.922 | 0.896 | 1.2 | 1.1
4 | NCI-H650 | 0.885 | 1.19 | 0.845 | 0.825 | 0.498 | 0.733 | 0.774 | 0.621 | 0.569 | 0.329 | 0.702 | 0.859 |  | 0.725 | 0.879 | 0.91 | 0.955 |  | 0.677 | 0.807
5 | NCI-H661 | 0.43 | 0.451 | 0.448 | 0.341 | 0.421 | 0.365 | 0.378 | 0.432 | 0.389 | 0.404 | 0.775 | 0.735 | 0.691 | 0.727 | 0.878 | 0.689 | 0.536 | 0.578 | 0.486 | 0.559
6 | NCI-H727 | 0.606 | 0.415 | 0.291 | 0.297 | 0.216 | 0.353 | 0.337 | 0.287 | 0.231 | 0.279 | 0.923 | 0.564 | 0.646 | 1.24 | 1.32 | 0.285 | 0.204 | 0.282 | 0.323 | 0.263
7 | NCI-H838 | 0.846 | 0.933 |  | 0.634 | 0.428 | 0.275 | 0.24 | 0.225 | 0.217 | 0.22 | 0.79 | 0.769 | 0.835 | 0.785 | 0.818 | 0.662 | 0.866 | 0.944 | 0.904 | 0.986
8 | NCI-H1355 | 0.838 | 0.767 | 0.369 | 0.532 | 0.4 | 0.588 | 0.463 | 0.418 | 0.394 | 0.318 | 1.1 | 1.16 | 1.03 | 0.958 | 0.983 | 0.702 | 0.748 | 0.73 | 0.56 | 0.632

From the supplement of paper PMC10307832
